Columns and labels:
Format in all cases: biochemical
[1] = target: T1, p110α Type Ia human PI3K (Homo sapiens, UniProt P42336); test: In Vitro PI3K Enzyme Assay (AlphaScreen), Test (b)(i), p110α; conditions: read-out: IC50 versus p110α Type Ia human PI3K
T1 construct: full length DNA of each of the p110α, p110β and p110δ Type Ia human PI3K p110 isoforms; 6-His; made in house
Source text: (b)(i) In Vitro PI3K Enzyme Assay
The assay used AlphaScreen technology (Gray et al., Analytical Biochemistry, 2003, 313: 234-245) to determine the ability of test compounds to inhibit phosphorylation by recombinant Type I PI3K enzymes of the lipid PI(4,5)P2.
DNA fragments encoding human PI3K catalytic and regulatory subunits were isolated from cDNA libraries using standard molecular biology and PCR cloning techniques. The selected DNA fragments were used to generate baculovirus expression vectors. In particular, full length DNA of each of the p110α, p110β and p110δ Type Ia human PI3K p110 isoforms (EMBL Accession Nos. HSU79143, S67334, Y10055 for p110α, p110β and p110δ respectively) were sub-cloned into a pDEST10 vector (Invitrogen Limited, Fountain Drive, Paisley, UK). The vector is a Gateway-adapted version of Fastbac1 containing a 6-His epitope tag. […]
Biotinylated-DiC8-PI(3,4,5)P3 (50 nM; Cell Signals Inc., Catalogue No. 107), recombinant purified GST-Grp1 PH protein (2.5 nM) and AlphaScreen Anti-GST donor and acceptor beads (100 ng; Packard Bioscience Limited, Station Road, Pangbourne, Berkshire, UK, Catalogue No. 6760603M) were added and the assay plates were left for about 5 to 20 hours at room temperature in the dark. The resultant signals arising from laser light excitation at 680 nm were read using a Packard AlphaQuest instrument. […]

[2] = target: T2, mTOR (Homo sapiens, UniProt P42345); test: In Vitro mTOR Kinase Assay (Echo), Test (a)(ii)
T2 construct: FLAG; made in house
In short: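 AlphaScreen read-out: biotinylated substrate phosphorylation was detected with anti-p70 S6K (T389) 1A5 antibody, Protein A acceptor and streptavidin donor beads after overnight dark incubation at room temperature. Enzyme was FLAG-mTOR 1362-2549 from stable HEK293 cells.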

[3] = target: T2, mTOR; test: mTOR Kinase Assay (Echo)
[4] = table of enzyme assay Test (a)(ii), read-out: Test (a)(ii) IC50

T2 sequence (P42345 1362-2549): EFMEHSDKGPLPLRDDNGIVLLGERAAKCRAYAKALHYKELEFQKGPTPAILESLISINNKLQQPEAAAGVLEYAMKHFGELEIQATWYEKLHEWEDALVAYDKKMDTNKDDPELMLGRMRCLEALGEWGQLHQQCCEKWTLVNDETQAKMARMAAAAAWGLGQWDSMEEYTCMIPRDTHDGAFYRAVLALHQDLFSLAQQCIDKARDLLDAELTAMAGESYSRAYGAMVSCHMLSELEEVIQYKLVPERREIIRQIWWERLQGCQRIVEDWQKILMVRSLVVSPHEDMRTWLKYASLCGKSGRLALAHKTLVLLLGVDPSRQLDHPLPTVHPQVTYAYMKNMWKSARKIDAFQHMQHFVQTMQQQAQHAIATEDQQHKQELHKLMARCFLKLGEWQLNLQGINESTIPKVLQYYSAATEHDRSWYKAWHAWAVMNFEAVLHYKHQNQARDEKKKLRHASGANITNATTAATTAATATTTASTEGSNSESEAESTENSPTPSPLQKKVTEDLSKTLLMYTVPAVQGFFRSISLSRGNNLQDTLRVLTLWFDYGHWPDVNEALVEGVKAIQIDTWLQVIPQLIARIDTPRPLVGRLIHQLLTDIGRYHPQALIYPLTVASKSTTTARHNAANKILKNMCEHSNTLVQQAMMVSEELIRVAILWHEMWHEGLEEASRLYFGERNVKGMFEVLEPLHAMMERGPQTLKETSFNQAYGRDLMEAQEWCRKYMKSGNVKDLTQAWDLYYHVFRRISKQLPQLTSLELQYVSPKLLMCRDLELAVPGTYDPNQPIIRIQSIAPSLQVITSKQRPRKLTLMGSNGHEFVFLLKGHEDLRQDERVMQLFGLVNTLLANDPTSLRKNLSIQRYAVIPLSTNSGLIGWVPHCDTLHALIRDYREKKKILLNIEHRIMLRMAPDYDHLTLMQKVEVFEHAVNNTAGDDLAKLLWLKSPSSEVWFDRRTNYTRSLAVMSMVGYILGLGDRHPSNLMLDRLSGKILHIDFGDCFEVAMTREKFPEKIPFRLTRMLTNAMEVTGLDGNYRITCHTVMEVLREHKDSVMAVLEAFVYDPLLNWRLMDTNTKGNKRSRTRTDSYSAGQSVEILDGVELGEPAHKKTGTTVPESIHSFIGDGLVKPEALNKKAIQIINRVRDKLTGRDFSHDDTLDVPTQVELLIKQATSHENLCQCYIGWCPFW
T1 sequence (P42336 whole entry, canonical isoform): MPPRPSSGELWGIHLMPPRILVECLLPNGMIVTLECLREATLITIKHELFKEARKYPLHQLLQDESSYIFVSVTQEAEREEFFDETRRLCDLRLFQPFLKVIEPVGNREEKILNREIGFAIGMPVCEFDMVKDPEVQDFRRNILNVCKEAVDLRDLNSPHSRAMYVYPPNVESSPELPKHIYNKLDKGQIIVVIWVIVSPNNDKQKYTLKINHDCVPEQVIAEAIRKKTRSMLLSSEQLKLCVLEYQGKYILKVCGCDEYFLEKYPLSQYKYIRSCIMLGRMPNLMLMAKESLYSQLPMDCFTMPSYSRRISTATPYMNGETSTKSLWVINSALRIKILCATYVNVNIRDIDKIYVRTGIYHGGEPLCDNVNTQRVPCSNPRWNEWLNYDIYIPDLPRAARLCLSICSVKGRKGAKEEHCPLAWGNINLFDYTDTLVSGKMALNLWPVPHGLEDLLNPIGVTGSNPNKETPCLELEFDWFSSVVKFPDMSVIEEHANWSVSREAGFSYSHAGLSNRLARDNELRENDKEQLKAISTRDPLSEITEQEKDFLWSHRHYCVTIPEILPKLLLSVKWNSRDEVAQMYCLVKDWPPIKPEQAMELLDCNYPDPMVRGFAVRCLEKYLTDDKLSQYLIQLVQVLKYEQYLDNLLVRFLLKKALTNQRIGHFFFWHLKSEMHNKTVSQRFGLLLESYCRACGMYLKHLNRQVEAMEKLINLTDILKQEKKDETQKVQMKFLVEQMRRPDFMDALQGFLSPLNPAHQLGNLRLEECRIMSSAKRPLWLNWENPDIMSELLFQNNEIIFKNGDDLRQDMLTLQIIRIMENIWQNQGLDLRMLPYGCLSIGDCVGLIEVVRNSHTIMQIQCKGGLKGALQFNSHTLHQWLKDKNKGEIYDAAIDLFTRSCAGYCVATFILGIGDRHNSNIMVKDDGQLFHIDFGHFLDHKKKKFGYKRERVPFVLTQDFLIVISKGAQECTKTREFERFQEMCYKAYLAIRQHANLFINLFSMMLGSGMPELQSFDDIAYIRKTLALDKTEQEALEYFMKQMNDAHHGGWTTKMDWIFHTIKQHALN
T1 sequence (P27986 whole entry partner, canonical isoform): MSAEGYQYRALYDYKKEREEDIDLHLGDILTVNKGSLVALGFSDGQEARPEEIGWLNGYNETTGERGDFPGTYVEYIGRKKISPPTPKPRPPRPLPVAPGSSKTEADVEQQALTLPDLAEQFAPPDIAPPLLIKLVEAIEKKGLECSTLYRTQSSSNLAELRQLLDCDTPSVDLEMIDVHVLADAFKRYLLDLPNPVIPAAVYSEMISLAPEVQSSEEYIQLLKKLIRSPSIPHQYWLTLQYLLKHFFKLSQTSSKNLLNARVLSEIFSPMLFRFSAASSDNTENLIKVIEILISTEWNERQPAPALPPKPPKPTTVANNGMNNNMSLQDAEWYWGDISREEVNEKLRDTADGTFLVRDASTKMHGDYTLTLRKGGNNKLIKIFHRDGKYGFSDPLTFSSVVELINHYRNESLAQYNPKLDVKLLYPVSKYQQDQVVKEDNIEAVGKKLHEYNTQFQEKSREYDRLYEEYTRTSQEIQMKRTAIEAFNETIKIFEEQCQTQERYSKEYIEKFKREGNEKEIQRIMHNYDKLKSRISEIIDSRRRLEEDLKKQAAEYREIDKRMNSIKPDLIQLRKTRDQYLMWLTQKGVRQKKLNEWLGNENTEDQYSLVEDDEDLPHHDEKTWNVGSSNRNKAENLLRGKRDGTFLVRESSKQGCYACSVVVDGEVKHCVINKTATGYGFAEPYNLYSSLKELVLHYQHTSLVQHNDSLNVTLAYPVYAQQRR

IC50 [1] [nM] | IC50 ([2]; read-out: mTOR Kinase Assay (Echo)) [nM] | IC50 [3] [nM] | IC50 [2, 4] [nM] | Compound
1040 | 0.169 |  |  | C[C@H]1COCCN1c1cc(C2(S(C)(=O)=O)CC2)nc(-c2ccc(NC(=O)Nc3cnn(C)c3)cc2)n1 [Example 2b, 1-[4-[4-[(3S)-3-methylmorpholin-4-yl]-6-(1-methylsulfonylcyclopropyl)pyrimidin-2-yl]phenyl]-3-(1-methylpyrazol-4-yl)urea]
 |  | 3 | 4.88 | CNC(=S)Nc1ccc(-c2nc(N3CCOC[C@@H]3C)cc(C3(S(=O)(=O)c4ccccc4)CC3)n2)cc1 [Example 37ab, 1-[4-[4-[1-(benzenesulfonyl)cyclopropyl]-6-[(3S)-3-methylmorpholin-4-yl]pyrimidin-2-yl]phenyl]-3-methylthiourea]
 |  | 29.8 | 43.8 | C[C@H]1COCCN1c1cc(C2(S(=O)(=O)c3ccccc3)CC2)nc(-c2ccc(NC(=S)NCc3ncc[nH]3)cc2)n1 [Example 37ac, 1-[4-[4-[1-(benzenesulfonyl)cyclopropyl]-6-[(3S)-3-methylmorpholin-4-yl]pyrimidin-2-yl]phenyl]-3-(1H-imidazol-2-ylmethyl)thiourea]
 |  | 13.2 | 19.8 | C[C@H]1COCCN1c1cc(C2(S(=O)(=O)CCCO)CC2)nc(-c2ccc(NC(=S)NC3CC3)cc2)n1 [Example 37h, 3-cyclopropyl-1-[4-[4-[1-(3-hydroxypropylsulfonyl)cyclopro-pyl]-6-[(3S)-3-methylmorpholin-4-yl]pyrimidin-2-yl]phenyl]thiourea]
 |  | 3.06 | 3.79 | C[C@H]1COCCN1c1cc(C2(S(=O)(=O)CCCO)CC2)nc(-c2ccc(NC(=S)NCCO)cc2)n1 [Example 37i, 3-(2-hydroxyethyl)-1-[4-[4-[1-(3-hydroxypropylsulfonyl)cyclopro-pyl]-6-[(3S)-3-methylmorpholin-4-yl]pyrimidin-2-yl]phenyl]thiourea]
 |  | 11.4 | 16.1 | CCNC(=S)Nc1ccc(-c2nc(N3CCOC[C@@H]3C)cc(C3(S(=O)(=O)CCCO)CC3)n2)cc1 [Example 37k, 1-ethyl-3-[4-[4-[1-(3-hydroxypropylsulfonyl)cyclopro-pyl]-6-[(3S)-3-methylmorpholin-4-yl]pyrimidin-2-yl]phenyl]thiourea]
 |  | 5.53 | 6.86 | C[C@H]1COCCN1c1cc(C2(S(=O)(=O)c3ccccc3)CC2)nc(-c2ccc(NC(=S)NCCC#N)cc2)n1 [Example 37y, 1-[4-[4-[1-(benzenesulfonyl)cyclopropyl]-6-[(3S)-3-methylmorpholin-4-yl]pyrimidin-2-yl]phenyl]-3-(2-cyanoethyl)thiourea]
 |  | 6.49 | 2.21 | C[C@H]1COCCN1c1cc(C2(S(=O)(=O)c3ncc[nH]3)CC2)nc(-c2ccc(NC(=O)NC3CC3)cc2)n1 [Example 40a, 3-cyclopropyl-1-[4-[4-[1-(1H-imidazol-2-ylsulfonyl)cyclopropyl]-6-[(3S)-3-methylmorpholin-4-yl]pyrimidin-2-yl]phenyl]urea]
 |  | 0.425 | 0.607 | CCNC(=O)Nc1ccc(-c2nc(N3CCOCC3)cc(C3(S(=O)(=O)c4nc(C)cs4)CC3)n2)cc1 [Example 42d, 1-ethyl-3-[4-[4-[1-[(4-methyl-1,3-thiazol-2-yl)sulfonyl]cyclopropyl]-6-morpholin-4-ylpyrimidin-2-yl]phenyl]urea]
 |  | 21.9 | 7.17 | CCNC(=O)Nc1ccc(-c2nc(N3CCOC[C@@H]3C)cc(C3(S(=O)(=O)CCNC(C)=O)CC3)n2)cc1 [Example 45, N-[2-[1-[2-[4-(Ethylcarbamoylamino)phenyl]-6-[(3S)-3-methylmorpholin-4-yl]pyrimidin-4-yl]cyclopropyl]sulfonylethyl]acetamide]
 |  | 2.52 | 0.72 | CNC(=O)Nc1ccc(-c2nc(N3CCOC[C@@H]3C)cc(C3(S(=O)(=O)c4ccc(F)cn4)CC3)n2)cc1 [Example 48, 1-[4-[4-[1-(5-Fluoropyridin-2-yl)sulfonylcyclopropyl]-6-[(3S)-3-methylmorpholin-4-yl]pyrimidin-2-yl]phenyl]-3-methylurea]
 |  | 1.03 | 1.16 | C[C@H]1COCCN1c1cc(C2(S(=O)(=O)c3ccc(F)cn3)CC2)nc(-c2ccc(NC(=O)NC3CC3)cc2)n1 [Example 48a, 3-cyclopropyl-1-[4-[4-[1-(5-fluoropyridin-2-yl)sulfonylcyclopropyl]-6-[(3S)-3-methylmorpholin-4-yl]pyrimidin-2-yl]phenyl]urea]
 |  | 10.7 | 5.88 | C[C@H]1COCCN1c1cc(C2(S(C)(=O)=O)CC2)nc(-c2ccc(NC(=O)Nc3cnn(C)c3)c(F)c2)n1 [Example 52d, 1-[2-fluoro-4-[4-[(3S)-3-methylmorpholin-4-yl]-6-(1-methylsulfonylcyclopropyl)pyrimidin-2-yl]phenyl]-3-(1-methylpyrazol-4-yl)urea]

From patent publication US20090018134A1, “Compounds - 945” (AstraZeneca AB, priority 2007, published 2009)
